Results: BindingDB's records for doi:10.1007/s002109900044 (Universitat Wurzburg, 1999)

Assays:
Adenosine receptor A2a = Adenosine receptor A2a (Homo sapiens, UniProt P29274)
Adenosine receptor A3 = target: T1, Adenosine receptor A3 (Homo sapiens, UniProt P0DMS8)
T1 sequence (P0DMS8 whole entry): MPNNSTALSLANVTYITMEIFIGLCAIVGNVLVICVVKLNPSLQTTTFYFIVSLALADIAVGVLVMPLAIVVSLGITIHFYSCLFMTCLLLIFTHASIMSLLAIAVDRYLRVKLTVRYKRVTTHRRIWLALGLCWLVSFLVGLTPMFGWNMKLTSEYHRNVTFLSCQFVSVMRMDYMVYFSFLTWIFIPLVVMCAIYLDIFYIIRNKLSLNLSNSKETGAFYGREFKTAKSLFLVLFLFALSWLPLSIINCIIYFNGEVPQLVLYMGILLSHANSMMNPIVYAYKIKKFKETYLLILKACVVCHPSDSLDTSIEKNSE

Adenosine receptor A1 = target: T2, Adenosine receptor A1 (Homo sapiens, UniProt P30542)
T2 sequence (P30542 whole entry): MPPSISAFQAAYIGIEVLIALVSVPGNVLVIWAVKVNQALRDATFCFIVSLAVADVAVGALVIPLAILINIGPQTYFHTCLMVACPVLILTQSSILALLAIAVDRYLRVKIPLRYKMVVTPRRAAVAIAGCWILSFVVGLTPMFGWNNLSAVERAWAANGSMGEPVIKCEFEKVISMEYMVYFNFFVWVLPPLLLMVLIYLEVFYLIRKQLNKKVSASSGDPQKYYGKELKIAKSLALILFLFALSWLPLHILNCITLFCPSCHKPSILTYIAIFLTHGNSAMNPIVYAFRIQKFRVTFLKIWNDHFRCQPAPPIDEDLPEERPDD

Adenosine receptor A2a, sequence (P29274 whole entry): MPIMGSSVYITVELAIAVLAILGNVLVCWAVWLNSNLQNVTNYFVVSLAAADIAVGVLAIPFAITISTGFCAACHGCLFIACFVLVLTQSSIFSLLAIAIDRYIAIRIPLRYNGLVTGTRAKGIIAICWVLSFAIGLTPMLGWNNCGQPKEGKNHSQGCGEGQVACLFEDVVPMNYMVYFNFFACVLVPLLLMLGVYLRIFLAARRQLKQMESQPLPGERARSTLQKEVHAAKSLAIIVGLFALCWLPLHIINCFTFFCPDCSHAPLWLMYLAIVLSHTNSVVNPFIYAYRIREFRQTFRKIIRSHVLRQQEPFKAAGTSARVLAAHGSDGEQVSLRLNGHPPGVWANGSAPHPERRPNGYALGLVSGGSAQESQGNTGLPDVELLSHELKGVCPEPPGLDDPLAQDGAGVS

Compound | Ki (Adenosine receptor A2a) | Ki (Adenosine receptor A3) | Ki (Adenosine receptor A1)
CCNC(=O)C1OC(n2cnc3c(N)nc(C#CCOc4ccccc4)nc32)C(O)C1O (stereo not given) [2-substituted NECA derivatives, 8] | 180 nM | 14 nM | 8 nM
CCNC(=O)C1OC(n2cnc3c(N)nc(C#Cc4ccc(CCC(=O)O)cc4)nc32)C(O)C1O (stereo not given) [3-{4-[6-Amino-9-(5-ethylcarbamoyl-3,4-dihydroxy-tetrahydro-furan-2-yl)-9H-purin-2-ylethynyl]-phenyl}-propionic acid] | 2200 nM | 42 nM | 1000 nM
CCNC(=O)C1OC(n2cnc3c(N)nc(C#CC4=CCCCC4)nc32)C(O)C1O (stereo not given) [5-(6-Amino-2-cyclohex-1-enylethynyl-purin-9-yl)-3,4-dihydroxy-tetrahydro-furan-2-carboxylic acid ethylamide] | 100 nM | 28 nM | 87 nM
CCNC(=O)C1OC(n2cnc3c(N)nc(C#Cc4ccccc4)nc32)C(O)C1O (stereo not given) [5-(6-Amino-2-phenylethynyl-purin-9-yl)-3,4-dihydroxy-tetrahydro-furan-2-carboxylic acid ethylamide] | 620 nM | 6.2 nM | 560 nM
CCNC(=O)C1OC(n2cnc3c(N)nc(C#Cc4nccs4)nc32)C(O)C1O (stereo not given) [5-(6-Amino-2-thiazol-2-ylethynyl-purin-9-yl)-3,4-dihydroxy-tetrahydro-furan-2-carboxylic acid ethylamide] | – | 3.7 nM | 12 nM
CCNC(=O)C1OC(n2cnc3c(N)nc(C#CC(C)(O)c4ccccc4)nc32)C(O)C1O (stereo not given) [5-[6-Amino-2-(3-hydroxy-3-phenyl-but-1-ynyl)-purin-9-yl]-3,4-dihydroxy-tetrahydro-furan-2-carboxylic acid ethylamide] | 56 nM | 2.4 nM | 9.4 nM
CCNC(=O)C1OC(n2cnc3c(N)nc(C#CC(C)O)nc32)C(O)C1O (stereo not given) [5-[6-Amino-2-(3-hydroxy-but-1-ynyl)-purin-9-yl]-3,4-dihydroxy-tetrahydro-furan-2-carboxylic acid ethylamide] | 14 nM | 1.5 nM | 3.3 nM
CCNC(=O)C1OC(n2cnc3c(N)nc(C#CCC(C)O)nc32)C(O)C1O (stereo not given) [5-[6-Amino-2-(4-hydroxy-pent-1-ynyl)-purin-9-yl]-3,4-dihydroxy-tetrahydro-furan-2-carboxylic acid ethylamide] | 14 nM | 4.1 nM | 40 nM
CCNC(=O)C1OC(n2cnc3c(N)nc(C#CCCCC#N)nc32)C(O)C1O (stereo not given) [5-[6-Amino-2-(5-cyano-pent-1-ynyl)-purin-9-yl]-3,4-dihydroxy-tetrahydro-furan-2-carboxylic acid ethylamide] | 25 nM | 4.7 nM | 38 nM
CCNC(=O)C1OC(n2cnc3c(N)nc(C#CCCCc4ccccc4)nc32)C(O)C1O (stereo not given) [5-[6-Amino-2-(5-phenyl-pent-1-ynyl)-purin-9-yl]-3,4-dihydroxy-tetrahydro-furan-2-carboxylic acid ethylamide] | – | 27 nM | 180 nM
CCNC(=O)C1OC(n2cnc3c(N)nc(C#Cc4ccc(C(N)=O)cc4)nc32)C(O)C1O (stereo not given) [5-{6-amino-2-[2-(4-carbamoylphenyl)ethynyl]-9H-purin-9-yl}-N-ethyl-3,4-dihydroxyoxolane-2-carboxamide] | 470 nM | 9.3 nM | 200 nM
CCNC(=O)C1OC(n2cnc3c(N)nc(C#Cc4ccco4)nc32)C(O)C1O (stereo not given) [5-{6-amino-2-[2-(furan-2-yl)ethynyl]-9H-purin-9-yl}-N-ethyl-3,4-dihydroxyoxolane-2-carboxamide] | 510 nM | 12 nM | 140 nM
CCNC(=O)[C@H]1O[C@@H](n2cnc3c(N)nc(C#C[C@@H](O)c4ccccc4)nc32)[C@H](O)[C@@H]1O [6R, (R)-PHPNECA] | 39 nM | 5.5 nM | 1.9 nM
CCNC(=O)C1OC(n2cnc3c(N)nc(C#C[C@H](O)c4ccccc4)nc32)C(O)C1O (stereo partly drawn) [6S, (S)-PHPNECA] | 2 nM | 0.75 nM | 2.1 nM
CCCCC#Cc1nc(N)c2ncn([C@@H]3O[C@H](C(=O)NCC)[C@H](O)C3O)c2n1 (stereo partly drawn) [(2S,3R,5R)-5-[6-amino-2-(hex-1-yn-1-yl)-9H-purin-9-yl]-N-ethyl-3,4-dihydroxyoxolane-2-carboxamide] | 6.4 nM | 2.4 nM | –
CCNC(=O)C1OC(n2cnc3c(N)nc(C#CC(O)c4ccccc4)nc32)C(O)C1O (stereo not given) [R,S-PHPNECA] | 3.1 nM | 0.42 nM | 2.7 nM
